The values below come from patent US11999739B2, “Antimicrobials methods of making and using the same” (BIOVERSYS AG, priority 2016, dated 2024).

Assay [1] deals with Escherichia coli strain ATCC25922. In words: Standard microdilution MIC assay, E. coli. It is filed as cell-based. The essentials:
(§1)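 Broth microdilution per CLSI M7-A8 guidelines, with reference-strain quality control run in the same design; MIC determined per strain. Activity scored +/− against a 16 micrograms/mL cutoff.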
On the technique in general: In broth dilution the organism is exposed to a series of concentrations in liquid medium.

The test system of assay [2] is Staphylococcus aureus (S. aureus) 11540 strain. In words: Standard microdilution MIC assay, S. aureus. It counts as cell-based. The essentials:
as §1

Each structure is given as a SMILES string.

What is called MIC is the lowest concentration found to suppress growth. For `CC(=N)NCC[C@@H](NCc1ccc(-n2cc3cc(-c4cc(CCC[C@@H](N)C5CC5)cc(Cl)c4F)[nH]c3nc2=O)cc1)C1CC1` [Compound 219], the MIC in assay [1] and in assay [2] was not above 16 µg/mL each time.
For `C=C[C@H](N)CCCc1cc(Cl)c(F)c(-c2cc3cn(-c4ccc(CN[C@H](CCNC(C)=N)C5CC5)cc4)c(=O)nc3[nH]2)c1` [Compound 220], the minimal inhibitory concentration (MIC) in assay [1] and in assay [2] was not above 16 µg/mL throughout.
Consider `CC(=N)NCC[C@@H]1CCC[C@@H](c2ccc(-n3cc4cc(-c5cc(CCC[C@@H](N)CF)cc(C(F)(F)F)c5F)[nH]c4nc3=O)cc2F)N1` [Compound 221], for which the MIC in assay [1] and in assay [2] was not above 16 µg/mL each time.
In the case of `COC[C@H](N)CCCc1cc(-c2cc3cn(-c4ccc(CN[C@H](CCNC(C)=N)C5CC5)cc4)c(=O)nc3[nH]2)cc(C(F)(F)F)c1` [Compound 222], the MIC in assay [1] and in assay [2] was not above 16 µg/mL each time.
Turning to `COC[C@H](N)CCCc1cc(OC(F)(F)F)c(F)c(-c2cc3cn(-c4ccc(CN[C@H](CCNC(C)=N)C5CC5)cc4)c(=O)nc3[nH]2)c1` [Compound 223], the minimum inhibitory concentration (MIC) in assay [1] and in assay [2] was not above 16 µg/mL each time.
For the molecule `COC[C@H](N)CCCc1cc(-c2cc3cn(-c4ccc(CN[C@H](CCNC(C)=N)C5CC5)cc4)c(=O)nc3[nH]2)c(F)c(C(F)(F)F)c1` [Compound 224], the MIC in assay [1] and in assay [2] was not above 16 µg/mL each time.
On to `CC(=N)NCC[C@@H]1CCC[C@@H](c2ccc(-n3cc4cc(-c5cc(CCC[C@@H](N)CF)cc(C(F)(F)F)c5F)[nH]c4nc3=O)cc2OC(F)(F)F)N1` [Compound 225], for which the minimum inhibitory concentration (MIC) in assay [1] and in assay [2] was not above 16 µg/mL throughout.
As to `CC(=N)NCC[C@@H]1CCC[C@@H](c2ccc(-n3cc4cc(-c5cc(CCC[C@@H]6COCCN6)cc(Cl)c5F)[nH]c4nc3=O)cc2)N1` [Compound 226], the MIC in assay [1] and in assay [2] was not above 16 µg/mL throughout.
For the molecule `CC(=N)NCC[C@@H]1CCC[C@@H](c2ccc(-n3cc4cc(-c5cc(CCC[C@@H]6COCC(=O)N6)cc(Cl)c5F)[nH]c4nc3=O)cc2)N1` [Compound 227], the MIC in assay [1] and in assay [2] was not above 16 µg/mL throughout.
For `CC(=N)NCC[C@@H]1CCC[C@@H](c2ccc(-n3cc4cc(-c5cc(CCC[C@@H](N)C6CC6)cc(C(F)(F)F)c5F)[nH]c4nc3=O)cc2F)N1` [Compound 228], the MIC in assay [1] and in assay [2] was not above 16 µg/mL each time.
With `CC(=N)NCC[C@@H]1CCC[C@@H](c2ccc(-n3cc4cc(-c5cc(CCC[C@@H](N)C6CC6)cc(C(F)(F)F)c5F)[nH]c4nc3=O)cc2OC(F)(F)F)N1` [Compound 229], the MIC in assay [1] and in assay [2] was not above 16 µg/mL throughout.
As for `CC(=N)NCC[C@@H](NCc1ccc(-n2cc3cc(-c4cc(CCC[C@@H](N)CF)cc(C(F)(F)F)c4F)[nH]c3nc2=O)cc1)C1CC1` [Compound 230], the minimum inhibitory concentration (MIC) in assay [1] and in assay [2] was not above 16 µg/mL each time.
Turning to `CC(=N)NCC[C@@H]1CCC[C@@H](c2ccc(-n3cc4cc(-c5cc(CCC[C@@H](N)CO)cc(OC(F)(F)F)c5F)[nH]c4nc3=O)cc2OC(F)(F)F)N1` [Compound 231], the MIC in assay [1] and in assay [2] was not above 16 µg/mL throughout.
Consider `CC(=N)NCC[C@@H]1CCC[C@@H](c2ccc(-n3cc4cc(-c5cc(CCC[C@H](C)N)cc(Cl)c5F)[nH]c4nc3=O)cc2C)N1` [Compound 232], for which the MIC in assay [1] and in assay [2] was not above 16 µg/mL each time.
As for `COC[C@H](N)CCCc1cc(OC(F)(F)F)c(F)c(-c2cc3cn(-c4ccc([C@@H]5CCC[C@@H](CCNC(C)=N)N5)c(OC(F)(F)F)c4)c(=O)nc3[nH]2)c1` [Compound 233], the MIC in assay [1] and in assay [2] was not above 16 µg/mL throughout.
Turning to `COc1cc(-n2cc3cc(-c4cc(CCC[C@@H](N)C5CC5)cc(OC(F)(F)F)c4F)[nH]c3nc2=O)ccc1[C@@H]1CCC[C@@H](CCNC(C)=N)N1` [Compound 234], the minimum inhibitory concentration (MIC) in assay [1] and in assay [2] was not above 16 µg/mL in each case.
`COc1cc(-n2cc3cc(-c4cc(CCC[C@@H](N)C5CC5)cc(C(F)(F)F)c4F)[nH]c3nc2=O)ccc1[C@@H]1CCC[C@@H](CCNC(C)=N)N1` [Compound 235]: the MIC in assay [1] and in assay [2] was not above 16 µg/mL throughout.
Take `CC(=N)NCC[C@@H]1CCC[C@@H](c2ccc(-n3cc4cc(-c5cc(CCC[C@@H](N)CF)cc(OC(F)(F)F)c5F)[nH]c4nc3=O)cc2)N1` [Compound 236]: the MIC in assay [1] and in assay [2] was not above 16 µg/mL each time.
For the molecule `COc1cc(-n2cc3cc(-c4cc(CCC[C@@H](N)CF)cc(C(F)(F)F)c4F)[nH]c3nc2=O)ccc1[C@@H]1CCC[C@@H](CCNC(C)=N)N1` [Compound 237], the minimal inhibitory concentration (MIC) in assay [1] and in assay [2] was not above 16 µg/mL each time.
Consider `COC[C@H](N)CCCc1cc(OC(F)(F)F)c(F)c(-c2cc3cn(-c4ccc([C@@H]5CCC[C@@H](CCNC(C)=N)N5)c(C)c4)c(=O)nc3[nH]2)c1` [Compound 238], for which the MIC in assay [1] and in assay [2] was not above 16 µg/mL in each case.
Turning to `CC(=N)NCC[C@@H]1CCC[C@@H](c2ccc(-n3cc4cc(-c5cc(CCC[C@@H](N)C6CC6)cc(Cl)c5F)[nH]c4nc3=O)cc2C)N1` [Compound 239], the MIC in assay [1] and in assay [2] was not above 16 µg/mL in each case.
`CSc1cc(-n2cc3cc(-c4cc(CCC[C@H](C)N)cc(Cl)c4F)[nH]c3nc2=O)cc(F)c1[C@@H]1CCC[C@@H](CCNC(C)=N)N1` [Compound 240]: the minimal inhibitory concentration (MIC) in assay [1] and in assay [2] was not above 16 µg/mL throughout.
For `COC[C@H](N)CCCc1cc(OC(F)(F)F)c(F)c(-c2cc3cn(-c4cc(F)c([C@@H]5CCC[C@@H](CCNC(C)=N)N5)c(SC)c4)c(=O)nc3[nH]2)c1` [Compound 241], the minimum inhibitory concentration (MIC) in assay [1] and in assay [2] was not above 16 µg/mL throughout.
As for `CSc1cc(-n2cc3cc(-c4cc(CCC[C@@H](N)C5CC5)cc(OC(F)(F)F)c4F)[nH]c3nc2=O)cc(F)c1[C@@H]1CCC[C@@H](CCNC(C)=N)N1` [Compound 242], the MIC in assay [1] and in assay [2] was not above 16 µg/mL each time.
As for `COc1cc(-n2cc3cc(-c4cc(CCC[C@@H](N)C5CC5)cc(C(F)(F)F)c4)[nH]c3nc2=O)ccc1[C@@H]1CCC[C@@H](CCNC(C)=N)N1` [Compound 243], the MIC in assay [1] and in assay [2] was not above 16 µg/mL in each case.
Take `C=C[C@H](N)CCCc1cc(Cl)c(F)c(-c2cc3cn(-c4ccc([C@@H]5CCC[C@@H](CCNC(C)=N)N5)c(OC)c4)c(=O)nc3[nH]2)c1` [Compound 244]: the MIC in assay [1] and in assay [2] was not above 16 µg/mL in each case.
Take `CC(=N)NCC[C@@H]1CCC[C@@H](c2ccc(-n3cc4cc(-c5cc(CCC[C@@H]6COCCN6)cc(Cl)c5F)[nH]c4nc3=O)cc2F)N1` [Compound 245]: the MIC in assay [1] and in assay [2] was not above 16 µg/mL in each case.
Turning to `C=C[C@H](N)CCCc1cc(Cl)c(F)c(-c2cc3cn(-c4cc(F)c([C@@H]5CCC[C@@H](CCNC(C)=N)N5)c(F)c4)c(=O)nc3[nH]2)c1` [Compound 246], the MIC in assay [1] and in assay [2] was not above 16 µg/mL each time.
With `CC(=N)NCC[C@@H]1CCC[C@@H](c2c(F)cc(-n3cc4cc(-c5cc(CCC[C@@H](N)C6CC6)cc(Cl)c5F)[nH]c4nc3=O)cc2F)N1` [Compound 247], the minimum inhibitory concentration (MIC) in assay [1] and in assay [2] was not above 16 µg/mL in each case.
On to `CC(=N)NCC[C@@H]1CCC[C@@H](c2ccc(-n3cc4cc(-c5cc(CCC[C@@H](N)C6CC6)cc(Cl)c5F)[nH]c4nc3=O)cn2)N1` [Compound 248], for which the minimum inhibitory concentration (MIC) in assay [1] and in assay [2] was not above 16 µg/mL in each case.
With `CSc1cc(-n2cc3cc(-c4cc(CCC[C@@H](N)C5CC5)cc(C(F)(F)F)c4)[nH]c3nc2=O)ccc1[C@@H]1CCC[C@@H](CCNC(C)=N)N1` [Compound 250], the MIC in assay [1] and in assay [2] was not above 16 µg/mL throughout.
For `CSc1cc(-n2cc3cc(-c4cc(CCC[C@@H](N)C5CC5)cc(C(F)(F)F)c4F)[nH]c3nc2=O)ccc1[C@@H]1CCC[C@@H](CCNC(C)=N)N1` [Compound 251], the MIC in assay [1] and in assay [2] was not above 16 µg/mL throughout.
Consider `CSc1cc(-n2cc3cc(-c4cc(CCC[C@@H](N)C5CC5)cc(OC(F)(F)F)c4F)[nH]c3nc2=O)ccc1[C@@H]1CCC[C@@H](CCNC(C)=N)N1` [Compound 252], for which the minimum inhibitory concentration (MIC) in assay [1] and in assay [2] was not above 16 µg/mL in each case.
Turning to `CC(=N)N[C@@H](C)C[C@@H]1CCC[C@@H](c2ccc(-n3cc4cc(-c5cc(CCC[C@H](C)N)cc(Cl)c5F)[nH]c4nc3=O)cc2)N1` [Compound 253], the MIC in assay [1] and in assay [2] was not above 16 µg/mL throughout.
Regarding `CSc1cc(-n2cc3cc(-c4cc(CCC[C@@H](N)CF)cc(C(F)(F)F)c4F)[nH]c3nc2=O)ccc1[C@@H]1CCC[C@@H](CCNC(C)=N)N1` [Compound 255], the MIC in assay [1] and in assay [2] was not above 16 µg/mL in each case.
Regarding `CC(=N)N[C@@H](C)C[C@@H]1CCC[C@@H](c2ccc(-n3cc4cc(-c5cc(CCC[C@@H](N)C6CC6)cc(Cl)c5F)[nH]c4nc3=O)cc2)N1` [Compound 256], the MIC in assay [1] and in assay [2] was not above 16 µg/mL throughout.
On to `CC(=N)N[C@H](C)C[C@@H]1CCC[C@@H](c2ccc(-n3cc4cc(-c5cc(CCC[C@@H](N)C6CC6)cc(Cl)c5F)[nH]c4nc3=O)cc2)N1` [Compound 257], for which the minimum inhibitory concentration (MIC) in assay [1] and in assay [2] was not above 16 µg/mL in each case.
Consider `COC[C@H](N)CCCc1cc(OC(F)(F)F)c(F)c(-c2cc3cn(-c4ccc([C@@H]5CCC[C@@H](C[C@H](C)NC(C)=N)N5)cc4)c(=O)nc3[nH]2)c1` [Compound 258], for which the minimal inhibitory concentration (MIC) in assay [1] and in assay [2] was not above 16 µg/mL in each case.
On to `C=C[C@H](N)CCCc1cc(Cl)c(F)c(-c2cc3cn(-c4ccc([C@@H]5CCC[C@@H](CCNC(C)=N)N5)c(C)c4)c(=O)nc3[nH]2)c1` [Compound 259], for which the minimal inhibitory concentration (MIC) in assay [1] and in assay [2] was not above 16 µg/mL each time.
In the case of `CSc1cc(-n2cc3cc(-c4cc(CCC[C@@H]5COCCN5)cc(Cl)c4F)[nH]c3nc2=O)ccc1[C@@H]1CCC[C@@H](CCNC(C)=N)N1` [Compound 260], the minimum inhibitory concentration (MIC) in assay [1] and in assay [2] was not above 16 µg/mL throughout.
On to `CC(=N)NCC[C@@H]1CCC[C@@H](c2ccc(-n3cc4cc(-c5cc(CCC[C@H](C)N)cc(Cl)c5F)[nH]c4nc3=O)cc2)N1CCc1cccnc1` [Compound 261], for which the minimal inhibitory concentration (MIC) in assay [1] and in assay [2] was not above 16 µg/mL in each case.
